Tested on: murine NIH 3T3 cells
Experiment: Growth inhibitory effects of prodrugs on NIH 3T3 cells in culture, with or without esterase-containing brain homogenate
Type: cell-based
Protocol: The antifolate drug methotrexate was conjugated with a variety of polar lipid carriers via specific linker moieties having specific reactive functional groups. […] The compounds were tested for their growth inhibitory effects on murine NIH 3T3 cells growing in cell culture. […] […] In a second set of experiments was included in the growth media an amount of a brain homogenate containing an enzymatically-active esterase.

Compound: CN(Cc1cnc2nc(N)nc(N)c2n1)c1ccc(C(=O)N[C@@H](CCC(=O)O)C(=O)O)cc1 [Mtx, methotrexate]
- # cells/plate (drug/FBS, cells incubated 1 hour at 37° C., cell growth and survival determined 70 hours after drug addition): 0.16 × 10^6 cells/plate
- # cells/plate (drug/FBS, cells incubated 2 hours at 37° C., cell growth and survival determined 72 hours after drug addition): 0.13 × 10^6 cells/plate
- # cells/plate (drug/brain extract, cells incubated 1 hour at 37° C., cell growth and survival determined 70 hours after drug addition): 0.09 × 10^6 cells/plate
- # cells/plate (drug/brain extract, cells incubated 2 hours at 37° C., cell growth and survival determined 72 hours after drug addition): 0.06 × 10^6 cells/plate
